Assays:
cytochrome c oxidase = assay: Cytochrome c oxidase activity assay; type: cell-based
Protocol: (§1) To examine the effect of C1 on the induction of cellular apoptosis in C. albicans cells, crucial apoptotic markers were observed. For this purpose, C. albicans 4251 and C. albicans 5112 cells were subjected to protoplast preparation by utilizing a method described previously by Srivastava et al. in 2020 through their research study. Briefly, cells were grown overnight and were exposed for 4 h with different concentrations of C1 (0.5×MIC and 1×MIC) and H2O2 (positive control) whereas, untreated cells were used as a negative control. Later on, the cells were washed and incubated for 10 min at room temperature in protoplast buffer-1 (1M sorbitol, 0.05M tris base, 0.01M MgCl2, 0.03M DTT, pH 7.4). The cells were spun at 1500 rpm for 5 min and the pellet was resuspended in protoplast buffer-2 (1M sorbitol, 0.05M tris base, 0.01M MgCl2, 0.001M DTT, pH 7.4) supplemented with lyticase enzyme (1 μg/mL) and incubated for 1 h at room temperature. Afterwards, the cell suspension was again centrifuged, and the pellet was resuspended and incubated for 20 min at room temperature in protoplast buffer-3 (1M sorbitol, 0.05M tris base, 0.01M MgCl2, pH 7.4). A final washing (1500 rpm for 5 min) was given to the cells and the pellet consisting of C. albicans protoplasts was resuspended in fresh PBS and was stored at 4° C. until further use.
The role of C1 in the modulating cytochrome c oxidase activity in C. albicans was investigated. The mitochondria from C. albicans 4251 and C. albicans 5112 were isolated using Yeast Mitochondria Isolation Kit—MITOISO3 (Sigma-Aldrich St. Louis, MO, U.S.A.) and then the Cytochrome c oxidase assay kit (ScienCell, Cat. No. 8278, CA, USA) was used to detect the cytochrome c oxidase activity in the cells following the manufacturer's instructions. Briefly, the C. albicans protoplasts were homogenized and the homogenate was resuspended and centrifuged in storage buffer (1×, 1 mL) at 6,500×g at 4° C. (10 min). The supernatant was discarded and resuspended in 200 μL of storage buffer (1×). The TCA Lowry method was utilized for determining the protein concentration present in the sample. Later on, the estimation of cytochrome c oxidase activity was done by preparing an assay mixture (Assay Buffer, 940 μL; n-dodecyl β-D-maltoside solution, 10 μL; mitochondrial protein, 2 μg) in a cuvette and then adding cytochrome c substrate solution (50 μL, provided in the kit) to it. Any change in absorbance was measured on a kinetic program (550 nm; every 30 seconds with an interval of 5 seconds) by using a spectrophotometer (UV-1800, Shimadzu Corporation, Japan).

C. albicans 5112 = assay: Cell count and viability assay (Muse cell analyser); type: cell-based, Candida albicans; conditions: C. albicans 5112 (Flz resistant), C1 at MFC, 24 h; untreated 86.8%
Protocol: (§2) Quantification of Live/Dead C. albicans cells in response to C1 was carried out. The actual count of viable and dead cells of C. albicans by treatment of C1 was monitored by Cell Count and Viability assay kit. An inoculum (1×10^6 cells/mL) of both Flz sensitive (C. albicans 4251) and resistant (C. albicans 5112) C. albicans strains was prepared followed by treatment with various concentrations of C1 (0.5×MIC, 1×MIC and MFC) for 24 h at 37° C. and 150 rpm. For the negative control, only inoculum treated with 1% DMSO was used and for the positive control, hydrogen peroxide (10 mM) was used in a 1:1 ratio with the inoculum. Following incubation, the cells were then washed in PBS and centrifuged at 4000 rpm for 5 minutes at 4° C. and the final pellet was resuspended in PBS. The Cell Count and Viability assay samples were prepared by mixing 190 μL of Luminex Cell Viability Dilution Buffer and 10 μL of the sample in a 1.5 mL Eppendorf tube and incubated in the dark for 5 min at room temperature. All samples were analysed by a Guava® Muse® Cell Analyser (Luminex A DiaSorin Company, USA).

C. albicans 4251 = assay: as above; type: cell-based, Candida albicans; conditions: C. albicans 4251 (Flz susceptible), C1 at MFC, 24 h; untreated 90.9%
Protocol: as §2

C. albicans cells = assay: TUNEL assay for DNA fragmentation; type: cell-based, Candida albicans; conditions: 0.5×MIC and 1×MIC, concentration dependent
Protocol: as §1, with “Afterwards, the cell suspension was again centrifuged, and the pellet was resuspended and incubated for 20 min at room temperature in protoplast buffer-3 (1M sorbitol, 0.05M tris base, 0.01M MgCl2, pH 7.4). A final washing (1500 rpm for 5 min) was given to the cells and the pellet consisting of C. albicans protoplasts was resuspended in fresh PBS and was stored at 4° C. until further use.” left out
We further performed an assay to detect the presence of DNA damage in C. albicans, an indicator of late-stage apoptosis. […] The protoplasts were again washed with PBS and all the samples were examined under a fluorescence microscope using Zeiss Laser Scanning Confocal Microscope (LSM) 780 (Carl Zeiss Microscopy, Jena, Germany). […]

In the case of `Brc1ccc([O][Co][O]c2ccc(Br)cc2C=Nc2ccc3c(c2)OCCO3)c(C=Nc2ccc3c(c2)OCCO3)c1` [Complex C1, [Co(L)2]], the “average percent decrease in cytochrome c oxidase activity” value (from here on “average percent decrease”) (cytochrome c oxidase; Flz resistant strain (C. albicans 5112), 0.5×MIC) is reported as 14.2%, the “average percent decrease” value (cytochrome c oxidase; Flz resistant strain (C. albicans 5112), 1×MIC) is reported as 47.53% and the “average percent decrease” value (cytochrome c oxidase; Flz sensitive strain (C. albicans 4251), 0.5×MIC) is reported as 22.61%. For the same molecule, the “average percent decrease” value (cytochrome c oxidase; Flz sensitive strain (C. albicans 4251), 1×MIC) was 51.3%, the live cells (C. albicans 5112) was 8.4% and the live cells (C. albicans 4251) was 4.3%. The “DNA fragmentation (TUNEL-positive cells)” value (C. albicans cells) was “effective at inducing DNA fragmentation”.

— US11780868B1, “Homoleptic metal coordination complexes as antifungal agents” (King Abdulaziz University, priority 2023, dated 2023)
